Experimental findings from patent US4663435A, “Bridged cyclic hexapeptide somatostatin analogs” (Merck & Co., Inc., priority 1985, dated 1987) are described below.

Positions of bridges follow the written chain, without caps; N, C: chain ends. Non-standard residues stand in square brackets, D forms with d. Residues, ends and D or L forms follow the SMILES beside them.

For one series, the system named is portal vein insulin. Put plainly: decrease of portal vein insulin levels in anesthetized rats. Format: in vivo, rat. The following applies: multiple or fraction of the effect of somatostatin (=1), fiducial limits in parentheses, external jugular vein, portal vein blood after 5 minutes. The protocol:
(§1) Analogs of somatostatin were compared to somatostatin in their ability to decrease the levels of portal vein glucagon and insulin in anesthetized rats. Male Sprague-Dawley rats (Charles River CD) weighing 160-200 g were anesthetized with urethane (150 mg/100 g of body weight; Aldrich). Saline or peptides were adminstered via the external jugular vein. After 5 minutes, the portal vein was exposed, and blood was collected via syringe containing 3 mg of EDTA and placed in chilled tubes containing 100 μl of Trasylol (FBA Pharmaceuticals) for subsequent hormone analysis. Plasma levels of glucagon were determined by the method of Faloona and Unger, Methods of Hormone Radioimmunoassay, Jaffe and Behrman (Eds), Academic Press, New York, Vol. II, pp. 257-527 (1976), utilizing glucagon antisera 30K obtained from R. Unger (Dallas, TX). Plasma levels of insulin were determined by a modification of the procedure of Herbert et al., J. Clin. Endocrinol. Metab., 25, 1375-1384 (1965).

The next series concerns portal vein glucagon. Put plainly: decrease of portal vein glucagon levels in anesthetized rats. The note with it: relative to somatostatin (=1), external jugular vein, portal vein blood after 5 minutes. Format: in vivo, rat. The procedure:
as §1

The test system of series [1] is growth hormone release from rat pituitary cells. Put plainly: in vitro test for the inhibition of growth hormone release, cultured rat pituitary cells. Format: cell-based. The note with it: multiple or fraction of the effect of somatostatin (=1), fiducial limits in parentheses, 4 hours incubation. The procedure:
The instant cyclic hexapeptide analogs of somatostatin are tested and compared with the effects of somatostatin in an in vitro test for the inhibition of growth hormone. The test is described as follows:
"Rat pituitaries were isolated according to the procedures of Vale and Grant `In Vitro Pituitary Hormone Secretion Assay for Hypophysiotropic Substances` in Methods in Enzymology. Vol. XXXVII, eds. O'Malley, B. W. and Hardman, J. G. (Academic Press, Inc., New York) pp. 5-93 (1975).
After 4 days in culture, the cells were washed and incubated for 4 hours in Dulbecco-modified Eagle's medium in the presence or absence of graded doses of each analog or somatostatin. The medium was then collected for subsequent growth hormone determination by a double antibody radioimmunoassay for rat growth hormone."

Series [2] is described as follows: stability of the isolated peptide with respect to polymerization. It is filed as physicochemical. The procedure: In order to stabilize the compound toward such decomposition it was treated in aqueous solution with 10-40 mole % of N-ethylmaleimide, a reagent which will react with free sulfhydryl groups that could catalyze disulfide interchange. The excess N-ethyl maleimide was separated by passage through a column of Sephadex G-25 gel (superfine) eluted with 50% acetic acid.

`C[C@@H](O)[C@@H]1NC(=O)[C@H](CCCCN)NC(=O)[C@@H](Cc2c[nH]c3ccccc23)NC(=O)[C@H](Cc2ccccc2)NC(=O)[C@@H]2CSSC[C@H](NC1=O)C(=O)N2` (cyclo(CCF[dW]KT); disulfide 1-2): the “Insulin Inhibition” value in the series on portal vein insulin was 10.6(5.5-19.9). Besides, the “Glucagon Inhibition” value in the series with portal vein glucagon was “Active”. Moreover, in series [1], the “Growth Hormone Release Inhibition” value is listed as 2.47(1.66-3.81). The “stability with respect to polymerization” value in series [2] (after treatment with 10-40 mole % of N-ethylmaleimide and reisolation) is “completely stable”; in series [2] (sample as isolated, in certain solvents or on extended storage), “unstable”.

For `C[C@H](N)C(=O)NCC(=O)N[C@H]1CSSC[C@@H](C(=O)O)NC(=O)[C@H](CO)NC(=O)[C@H]([C@@H](C)O)NC(=O)[C@H](Cc2ccccc2)NC(=O)[C@H]([C@@H](C)O)NC(=O)[C@H](CCCCN)NC(=O)[C@H](Cc2c[nH]c3ccccc23)NC(=O)[C@H](Cc2ccccc2)NC(=O)[C@H](Cc2ccccc2)NC(=O)[C@H](CC(N)=O)NC(=O)[C@H](CCCCN)NC1=O` [Somatostatin], the “Glucagon Inhibition” value in the series with portal vein glucagon was 1.
